Results on 19 molecules are retold here after PMC8624133, “10th Trends in Medical Mycology Held on 8 to 11 October 2021, Aberdeen, Scotland, Organized by the European Confederation of Medical Mycology (ECMM)” (Journal of Fungi, 2021).

For series [1], the system named is C. krusei. It is filed as cell-based, Candida krusei.
In series [2] the test system is Other species of Candida. It counts as cell-based, Candida spp.
The subject of series [3] is C. albicans. It counts as cell-based, Candida albicans.
In series [4] the test system is C. parapsilosis. It is filed as cell-based, Candida parapsilosis.
Series [5] relates to C. glabrata. It is filed as cell-based, Candida glabrata.
For series [6], the system named is C. tropicalis. It counts as cell-based, Candida tropicalis.
Series [7] concerns clinical dermatophyte isolates. Briefly: Inhibition of dermatophyte biofilm formation. It is filed as cell-based. As to the method:
Materials and Methods: The study population consisted of 50 dermatophyte isolates that were collected from 2019 to 2020 from patients referred to the two mycology laboratory of Shiraz, Iran. The isolates were identified by ITS gene region sequencing. The suspension (equivalent to 0.5 McFarland) of the isolates was used to evaluate the ability of the isolates to form biofilms and also the effect of itraconazole, terbinafine and griseofulvin at concentrations of 2–32 μg/mL on inhibiting biofilm formation. Two optical microscope and a scanning electron microscope were used to study the microscopic structure of biofilms formed on the surface of 96-well plate wells.

In series [8] the test system is Rhizopus oryzae. Briefly: Pandemic Box screening, EUCAST protocol. Conditions: for inhibition of R. oryzae growth: 5 µM. It is filed as cell-based. As to the method: (§1) Materials & Methods: An initial screening of the 400 compounds (5 µM) in this collection was performed with the Rhizopus oryzae, according to the EUCAST protocol. Compounds with activity against R. oryzae have also been tested against other mucormycosis etiological agents (Rhizopus microsporus e Rhizopus stolonifer) at concentrations ranging from 0.08 µM to 20 µM.

Series [9] relates to McLDM strains. Briefly: EUCAST MIC, S. cerevisiae overexpressing M. circinelloides LDM, resistance phenotypes. It counts as cell-based, Saccharomyces cerevisiae.
Series [10] has as its system three Rhizopus species. Briefly: MIC and fungicidal activity. It is filed as cell-based, Rhizopus oryzae, R. microsporus, R. stolonifer. Conditions: for MIC: 0.08 µM to 20 µM tested. Here is the method: as §1
Series [11] has as its system P. insidiosum (strains CBS101555, P38, ATCC90586). As to the kind of experiment: Radial growth assay. It counts as cell-based, Pythium insidiosum. Conditions: for MIC: Pythium insidiosum; for reduction of growth compared to the control: colony radial growth. Here is the method: These agriculture fungicides were initially evaluated for inhibitory effect against 3 phylogenetical distinct strains of P. insidiosum (i.e., strains CBS101555, P38, and ATCC90586) isolated from humans and animal with pythiosis in Thailand, Brazil, and United States. A radial growth assay was employed for the in vitro susceptibility analysis. […] The percentage of the colony’s radial growth of the treated organism was calculated in relation to the untreated control. The microscopic changes of the microorganisms were recorded.

Series [12] deals with Sporothrix brasiliensis. As to the kind of experiment: Murine subcutaneous sporotrichosis model. It is filed as in vivo, Balb/c mice. Here is the method: Materials & Methods: 50 Balb/c mice, male, five to seven-week-old, were subcutaneous infected (left footpad) by a clinical isolate of S. brasiliensis (5.4 × 10^7 yeast/mice). Treatments started seven days post-inoculation (p.i) in all five groups (10 mice/each): G1 control group (placebo—receiving just the diluent of the drugs), G2 treatment group (itraconazole—ITZ 50 mg/kg); G3 to G5 DD treatment groups, 1, 5 and 10 mg/kg, respectively. All mice were treated once a day by oral gavage, for 30 consecutive days. Physical conditions and behavior were daily evaluated, and individual weight was weekly determined. At the 32nd day p.i. (48 h after the end of the treatments) animals were euthanasied and lung, liver, brain, kidneys, testicle and footpad were recovered aseptically and homogenized to mycological analysis. Fungal burden in each organ was measured by quantitatively counting colony-forming units (CFU). The determination of colony forming units (CFU)/gram of tissue (g) of S. brasiliensis in internal organs of groups were compared by non-parametric tests using Kruskal-Wallis combined with Wilcoxon. The weight loss assay was calculated considering the percentage of loss and/or increase between the value corresponding to the fungal inoculation day and to the end of the treatment.

The test system of series [13] is Exophiala phaeomuriformis. As to the kind of experiment: MIC, CLSI M27-A3. It counts as cell-based. Conditions: read-out: MIC values. As to the method: Materials & Methods: The aviation kerosone samples came from an aviation company in Porto Alegre, state of Rio Grande do Sul, Brazil. The fungi isolation was carried out using the modified ASTM D6974-09 Standard. In this procedure, 500 mL kerosene samples were filtered, in triplicate, under aseptic conditions, under vacuum, using a 0.22 μm membrane (Millipore). After filtering, the membranes were deposited in potato dextrose agar culture medium. The plates were incubated in an oven at 30 °C for seven days. After this period, the colonies were isolated in new culture media for purification of the isolates. Molecular identification was performed through the sequencing of ITS DNA regions. The profile of sensitivity to clinical antifungals was assessed following protocols M27-A3 of the Clinical and Laboratory Standards Institute (CLSI).

The subject of series [14] is Trichophyton spp. Briefly: Agar-based screening method. Conditions: 0.5 McF, 5 days, 30 °C. It is filed as cell-based. Here is the method: Inter-experimental variation was evaluated by testing 10 isolates on three different days. Single-centre validation: After determining the optimal conditions for the agar screening method, 112 molecularly identified Trichophyton spp. clinical isolates were tested.

The subject of series [15] is invasive and mucocutaneous fungal infections. As to the kind of experiment: FURI and CARES open-label studies combined. It is filed as in vivo, human. Conditions: 84 patients. From the text: Methods: FURI subjects were eligible for enrollment if they had proven or probable severe mucocutaneous candidiasis, invasive candidiasis, invasive aspergillosis, or other fungal diseases with evidence of treatment failure, intolerance, or toxicity related to a currently approved standard-of-care antifungal treatment or if they were unable to receive an approved oral antifungal option (e.g., susceptibility of the organism) and a continued IV antifungal therapy was clinically undesirable or unfeasible.

The subject of series [16] is refractory fungal disease. As to the kind of experiment: FURI Phase 3 open-label study, refractory subset. It counts as in vivo, human. Conditions: 44 refractory patients. An excerpt:
Methods: FURI patients were eligible for enrollment if they have proven or probable, severe mucocutaneous candidiasis, invasive candidiasis or invasive aspergillosis and documented evidence of failure, intolerance, or toxicity related to a currently approved standard-of-care antifungal treatment or could not receive approved oral antifungal options (e.g., susceptibility of the organism) and continued IV antifungal therapy was clinically undesirable or unfeasible.

The subject of series [17] is A. fumigatus (resistant to posaconazole strain v79-63). Briefly: Neutropenic animal model of invasive pulmonary aspergillosis. It is filed as in vivo, CD-1 mice.

≈ marks a conversion by molar mass, not a printed value.

In the case of `Nc1nc(=O)[nH]cc1F` [5-FC, 5-flucytosine], the “I (intermediate) isolates, n (%)” value in series [1] is recorded as 3 (42.9%); in [2], 0 (0%); in series [3] it was 1 (0.5%); in series [4] it was 1 (0.6%); in series [5], 0 (0%); in series [6] it was 0 (0%). In addition, the “R (resistant) isolates, n (%)” value is 3 (42.9%) in [1]; 0 (0%) in [2]; 2 (1%) in series [3]; 2 (01.2%) in series [4]; 0 (0%) in [5]; 0 (0%) in [6]. The “S (sensitive) isolates, n (%)” value in series [1] is given as 1 (14.3%); in series [2], 26 (100%); in [3] it was 199 (98.5%); in [4] it was 170 (98.3%); in series [5], 71 (100%); in series [6] it was 57 (100%).

For the molecule `COC1=CC(=O)C[C@@H](C)[C@]12Oc1c(Cl)c(OC)cc(OC)c1C2=O` [griseofluvin, griseofulvin], the IC50 in series [7] (inhibition of biofilm formation, read-out: mean concentrations of IC50) is 3.18 µg/mL (≈ 9.01 µM). Also, in series [7] (tested at 2–32 μg/mL), the “samples with IC50 in concentration <2” value worked out at 66%.

Consider `c1cc(CN2CCCNCCNCCCNCC2)ccc1CN1CCCNCCNCCCNCC1` [MMV1580502], for which the “inhibition of R. oryzae growth” value in [8] is given as “more than 50%”.

`CC(C)(C)C(O)C(Oc1ccc(Cl)cc1)n1cncn1` (stereo not drawn) [TDM, triadimenol]: the resistance characteristics entry in series [9] is recorded as “same resistance characteristics as FLC”.

Turning to `Oc1cccc(C(Nc2nccs2)c2ccc3cccnc3c2O)c1` (stereo not drawn) [MMV642550], in [8], the “inhibition of R. oryzae growth” value is on record as “more than 50%”.

For orientation: MIC means the smallest concentration in the dilution series that meets the test's criterion for growth inhibition. Turning to `CCc1nc(N)nc(N)c1C#CC(C)c1cc(OC)cc(-c2ccncc2)c1` (stereo not drawn) [MMV1580844], in series [10], the fungicidal activity entry was “did not show fungicidal activity” and the MIC amounted to 0.08 µM (≈ 0.0299 µg/mL). Also, the “inhibition of R. oryzae growth” value in [8] is reported as “more than 50%”.

As for `Cc1ccc(-c2c(Cl)nc(C#N)n2S(=O)(=O)N(C)C)cc1` [cyazofamid], in [11], the MIC is 16 µg/mL (≈ 49.3 µM) and the “reduction of growth compared to the control” value (“reduction of growth” for short) is given as “at least 70%”.

For orientation: inhibition means the percentage by which the read-out fell short of the control. With `Cc1cc(C(F)(F)F)nn1CC(=O)N1CCC(c2nc(C3=NOC(c4c(F)cccc4F)C3)cs2)CC1` (stereo not drawn) [oxathiapiprolin], the inhibition result in series [11] is given as “no significant inhibition”.

Turning to `Oc1c(C(Nc2nc3ccccc3s2)c2ccc(OC(F)F)cc2)ccc2cccnc12` (stereo not drawn) [MMV019724], the “inhibition of R. oryzae growth” value in [8] is given as “more than 50%”.

`c1ccc([Se][Se]c2ccccc2)cc1` [DD, Diphenyl diselenide]: the “weight loss during treatment vs control group” value in series [12] (DD 5 mg/kg) is given as “statistically higher rate of weight loss”. In [12] (oral gavage once a day, 30 days, ITZ 50 mg/kg, DD 1, 5 or 10 mg/kg), the “fungal burden of internal organs vs placebo group” value is recorded as “higher fungal burdens”.

Consider `CSC1=N[C@@](C)(c2ccccc2)C(=O)N1Nc1ccccc1` [fenamidone], for which, in [11], the MIC worked out at 64 µg/mL (≈ 206 µM) and the “reduction of growth” value was “at least 70%”.

Take `CC(=O)N1CCN(c2ccc(OCC3COC(Cn4ccnc4)(c4ccc(Cl)cc4Cl)O3)cc2)CC1` (stereo not drawn) [ketoconazole]: the MIC in series [13] was determined as 125 µg/mL (≈ 235 µM).

Consider `COc1cc(NS(=O)(=O)c2ccc(C)cc2)c2ncccc2c1` [MMV098836], for which the “inhibition of R. oryzae growth” value in [8] is recorded as “more than 50%”.

Regarding `CCC(C)(C)c1ccc(CC(C)CN2C[C@@H](C)O[C@@H](C)C2)cc1` (stereo partly drawn) [amorolfine], in series [14], the “optimal agar concentration preventing growth of WT isolates” value was found to be 0.5 mg/L.

On to `CC(C)[C@@H](C)[C@@]1(C)CC[C@]2(C)[C@H]3CC[C@@H]4[C@@]5(COC[C@@]4(C)[C@@H](OC[C@](C)(N)C(C)(C)C)[C@H](n4ncnc4-c4ccncc4)C5)C3=CC[C@@]2(C)[C@@H]1C(=O)O` [ibrexafungerp, Ibrexafungerp], for which, in series [15], the progression of disease is reported as 5.9% and the stable disease amounted to 27.1%. In addition, the “complete response, partial response and clinical improvement” value in series [15] (oral, DRC-determined) was determined as 65.1%. In [16], this molecule displayed a progression of disease of 6.8% and a stable disease of 22.7%. Besides, in [16] (oral, DRC-determined), the “complete response, partial response or clinical improvement” value is given as 59.1%.

As to `O=C(NCc1ncc(C(F)(F)F)cc1Cl)c1c(Cl)cccc1Cl` [Fluopicolide, fluopicolide], in [11], the “reduction of growth” value is “at least 70%”. The molecule also came in with an MICs in [11] (tested at 0.25–[…], 3 biological replicates) of 8 µg/mL.

Turning to `Cc1cccc(C)c1C(=O)Nc1nc(-c2ccccn2)cc2ccccc12` [MMV1581558], the “inhibition of R. oryzae growth” value in series [8] is on record as “more than 50%”.

In [10], `CCCCC(CC)CNC(=N)NC(=N)NCCCCCCNC(=N)NC(=N)NCC(CC)CCCC` (stereo not drawn) [MMV396785, Alexidine] came in with a fungicidal activity of 10 µM. This molecule gave an MIC in series [10] (Rhizopus) of 0.63 to 1.25 µM (≈ 0.321 to 0.636 µg/mL). Also, the inhibition at 5 µM in [8] (Rhizopus arrhizus, read-out: inhibition of R. oryzae growth) was over 50%.

B1: IL-18: Mouse cytokine IL-18 (protein, UniProt P70380 36-192, looked up)
Interleukin-18: NFGRLHCTTAVIRNINDQVLFVDKRQPVFEDMTDIDQSASEPQTRLIIYMYKDSEVRGLAVTLSVKDSKMSTLSCKNKIISFEEMDPPENIDDIQSDLIFFQKRVPGHNKMEFESSLYEGHFLACQKEDDAFKLILKKKDENGDKSVMFTLTNLHQS
In series [17] (mean ± SEM, 3 animals treated for 3 d, placebo 6.1 ± 0.08), B1 registered a log10CFU/lung of 4.82 ± 0.44 log10CFU/lung. The survival rates in [17] (survival recorded until 15 d, IL-18 10 ng/mouse intranasally daily -2 d till +7 d, posaconazole 16 mg/kg/day, groups of 10, control 20%) came out at 56%.
